Source: patent US12336981B2, “Compounds and compositions for the inhibition of NAMPT” (Valo Health, Inc., priority 2010, dated 2025)

Legend:
[1] = test system: A2780 cells; assay: Xenograft studies: A2780 tumors s.c. in C.B-17-Igh-1b-Prkdc scid mice; assay type: in vivo; settings: female scid mice, p.o. BID for 5 or 10 days, dose selected from MTD study
Procedure: C.B-17-Igh-1b-Prkdc^scid mice (female) were injected s.c. with 5×10^6 A2780 cells (NCI) in the left flank. 10-12 days later when tumors reached 100-200 mm3 in size, mice were randomized into treatment groups of 8 mice per group including vehicle control and reference standard groups. The compounds were formulated in 60:30:10 PEG-400: D5W: Ethanol and administered p.o., at the dose volume of 10 ml/kg BID for a duration of 5 or 10 days. The dose used for efficacy was selected from the MTD (Maximum Tolerated Dose) study. Mice were weighed and tumors measured using vernier calipers every alternate day. Tumor volume was calculated according to the formula (length×width^2)/2. All animal work was approved by the Institutional Animal Care and Use Committee of Biological Resource Centre, Singapore.

[2] = test system: U251 cells; assay: In-vitro cell proliferation assay (SRB), U251 cells; assay type: cell-based; settings: Homo sapiens, U-251, 72 hours
Procedure: After overnight incubation at 37° C. and 5% CO2, the compound titrations were performed in a separate dilution plate by serially diluting the compounds in DMSO to make a 1000× stock. The compounds were then further diluted to 10× final concentration in culture media, whereupon 20 μL of each dilution was added to the plated cells with controls (e.g. DMSO and blank) to make a final volume of 5 200 μL. The final DMSO concentration in each well was 0.1%. The plates were then incubated for 72 hours at 37° C. in a 5% CO2 incubator. The number of viable cells was then assessed using sulforhodamine B (SRB) assay. Cells were fixed at 4° C. for 1 hour with the addition of 50 μL 30% trichloroacetic acid (TCA) to make a final concentration of 6% 10 TCA. The plates were washed four times with H2O and allowed to dry for at least 1 hour, whereupon 100 μL of a 4% SRB in 1% acetic acid solution was added to each well and incubated at room temperature for at least 30 minutes. The plates were then washed three times with 1% acetic acid, dried, and treated with 100 μL of 10 mM Tris-Base solution. The plates were then read in a microplate reader at an absorbance of 570 nm. 15 Background was generated on a separate plate with media only. Method for Determining % Inhibition First, the signals from the background plate are averaged, then the background was subtracted from the test plates.

[3] = test system: mouse mammary carcinoma; settings: in vivo; cited from earlier work
[4] = test system: murine renal cell carcinoma; settings: Drevs et al. 2003; cited from earlier work
[5] = test system: HepG2 cells; settings: Hasmann et al. 2003; cited from earlier work
[6] = test system: tumor cell lines; settings: broad range of tumor cell lines; Ravaud et al. 2005; cited from earlier work
[7] = test system: A2780 cells; assay: In-vitro cell proliferation assay (SRB), A2780 cells; assay type: cell-based; settings: Homo sapiens, A2780, 72 h, A2780 cells, 72 hours, SRB assay; read-out: A2780 IC50
Summary of the method: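 Proliferation is assessed by sulforhodamine B staining following a 72-hour incubation with compound dilutions containing 0.1% DMSO.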

[8] = molecular target: T1, NAMPT (Homo sapiens, UniProt P43490); assay: Biochemical inhibition assay: NAMPT enzymatic reaction, NMN quantified by mass spectrometry; settings: NAMPT enzymatic reaction; read-out: Biochem IC50
T1 construct: His tag; host or cells: E. coli
T1 sequence (P43490 whole entry): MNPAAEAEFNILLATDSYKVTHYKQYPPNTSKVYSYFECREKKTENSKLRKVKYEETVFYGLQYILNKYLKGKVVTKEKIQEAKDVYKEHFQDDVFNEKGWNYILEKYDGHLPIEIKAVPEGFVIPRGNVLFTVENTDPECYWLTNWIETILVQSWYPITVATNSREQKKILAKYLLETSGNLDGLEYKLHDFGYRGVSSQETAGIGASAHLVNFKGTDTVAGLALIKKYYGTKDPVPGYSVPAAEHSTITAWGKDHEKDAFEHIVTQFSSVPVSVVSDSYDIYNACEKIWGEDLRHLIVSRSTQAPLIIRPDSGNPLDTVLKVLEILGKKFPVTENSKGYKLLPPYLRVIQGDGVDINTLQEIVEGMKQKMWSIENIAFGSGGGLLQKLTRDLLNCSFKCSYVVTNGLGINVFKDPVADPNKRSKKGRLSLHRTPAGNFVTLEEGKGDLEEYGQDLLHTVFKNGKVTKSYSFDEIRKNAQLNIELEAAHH
Summary of the method: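 Inhibition of E. coli-expressed His-tagged human NAMPT, measured as NMN formation by mass spectrometry after a 30 min room-temperature reaction containing 1 μM NAM, 100 μM PRPP and 2.5 mM ATP.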

SMILES	Effect on tumor in A2780 xenograft [1]	IC50 [7] [nM]	IC50 [8] [nM]	other results
O=C(NCc1ccc(S(=O)(=O)c2ccccc2)cc1)c1cc2cnccc2[nH]1 [N-{[4-(benzenesulfonyl)phenyl]methyl}-1H-pyrrolo[3,2-c]pyridine-2-carboxamide]	tumor regression			IC50 [2]: 40 nM
O=C(/C=C/c1cccnc1)NCCCCC1CCN(C(=O)c2ccccc2)CC1 [FK866, (E)-N-[4-(1-benzoylpiperidin-4-yl)butyl]-3-(pyridine-3-yl)-acrylamide]				Tumor growth in mouse mammary carcinoma model [3]: delay in tumor growth; Activity in murine renal cell carcinoma model [4]: anti-tumor, antimetastatic, and anti-angiogenic activities; Apoptosis in HepG2 cells [5]: induces apoptosis
N#C/N=C(\NCCCCCCOc1ccc(Cl)cc1)Nc1ccncc1 [CHS-828]				Cell growth inhibition in tumor cell lines [6]: potently inhibit cell growth
COc1cc(-n2cccn2)ccc1S(=O)(=O)c1ccc(CNC(=O)c2cc3cnccc3[nH]2)cc1 [N-[(4-{[2-methoxy-4-(1H-pyrazol-1-yl)benzene]sulfonyl}phenyl)methyl]-1H-pyrrolo[3,2-c]pyridine-2-carboxamide]	delayed tumor growth	2	16	
O=C(NCc1ccc(S(=O)(=O)c2ccccc2OC(F)(F)F)cc1)c1cc2cnccc2[nH]1 [N-[(4-{[2-(trifluoromethoxy)benzene]sulfonyl}phenyl)methyl]-1H-pyrrolo[3,2-c]pyridine-2-carboxamide]	tumor regression	3	16	
O=C(NCc1ccc(S(=O)(=O)Nc2ccccc2OC(F)(F)F)cc1)c1cc2cnccc2[nH]1 [N-[(4-{[2-(trifluoromethoxy)phenyl]sulfamoyl}phenyl)methyl]-1H-pyrrolo[3,2-c]pyridine-2-carboxamide]	tumor stasis	1	6	
CC(=O)c1ccc(S(=O)(=O)c2ccc(CNC(=O)c3cc4cnccc4[nH]3)cc2)cc1 [N-({4-[(4-acetylbenzene)sulfonyl]phenyl}methyl)-1H-pyrrolo[3,2-c]pyridine-2-carboxamide]	tumor regression	3	7	
O=C(NCc1ccc(S(=O)(=O)c2ccc(F)cc2)cc1)c1ccc2nccn2c1 [N-({4-[(4-fluorobenzene)sulfonyl]phenyl}methyl)imidazo[1,2-a]pyridine-6-carboxamide]	tumor regression	11	23	
